Tests used:
Assay in all cases: microbe, parasite or virus in culture
Type in all cases: cell-based
[1] = test system: SARS-CoV-2 Omicron BA.2 variant; conditions: Severe acute respiratory syndrome coronavirus 2, A549, 48 h, read-out: IC50, inhibition of SARS-CoV-2 infection
SARS-CoV-2 Alpha variant = conditions: Severe acute respiratory syndrome coronavirus 2, A549, 48 h, read-out: IC50, inhibition of SARS-CoV-2 infection, Alpha, A549-ACE2-TMPRSS2, 1.56 to 50 μM for 2 days, n = 2
SARS-CoV-2 Delta variant = conditions: Severe acute respiratory syndrome coronavirus 2, A549, 48 h, read-out: IC50, inhibition of SARS-CoV-2 infection

C=C1CC[C@@H]2[C@](C)(CO)[C@H](O)CC[C@@]2(C)[C@@H]1C/C=C1/C(=O)OC[C@H]1O [Andrographolide, andrographolide]
IC50 [1]: 4.62 µM
IC50 (SARS-CoV-2 Alpha variant): 7.08 µM
IC50 (SARS-CoV-2 Delta variant): 7.35 µM

From paper PMC11752117 (Journal of Traditional and Complementary Medicine, 2024)
